Laboratory results from US12692254B2, “Benzimidazole inhibitors of PAD enzymes” (BRISTOL-MYERS SQUIBB COMPANY, priority 2018, dated 2026).

Biological target: human PAD4 (hPAD4) (Homo sapiens, UniProt Q9UM07)
Assay: RFMS human PAD4 functional assay (rapid-fire mass spectrum)
Format: biochemical
Conditions: 5 nM hPAD4 enzyme, 250 μM BAEE, 50 μM Calcium; 30 min preincubation, 90 min reaction at 37° C.
In short: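 PAD4 (10 nM) preincubated 30 min with compound (top final 50 μM), then BAEE substrate added in pH 7.5 HEPES buffer with DTT, 50 μM calcium, TPEN; 90 min at 37° C. After TCA quench, citrulline derivatized with phenyl glyoxal (4 mM final, 30 min, 37° C) and quantified by RapidFire MS against internal standard.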

Sequence of human PAD4 (hPAD4) (Q9UM07 whole entry): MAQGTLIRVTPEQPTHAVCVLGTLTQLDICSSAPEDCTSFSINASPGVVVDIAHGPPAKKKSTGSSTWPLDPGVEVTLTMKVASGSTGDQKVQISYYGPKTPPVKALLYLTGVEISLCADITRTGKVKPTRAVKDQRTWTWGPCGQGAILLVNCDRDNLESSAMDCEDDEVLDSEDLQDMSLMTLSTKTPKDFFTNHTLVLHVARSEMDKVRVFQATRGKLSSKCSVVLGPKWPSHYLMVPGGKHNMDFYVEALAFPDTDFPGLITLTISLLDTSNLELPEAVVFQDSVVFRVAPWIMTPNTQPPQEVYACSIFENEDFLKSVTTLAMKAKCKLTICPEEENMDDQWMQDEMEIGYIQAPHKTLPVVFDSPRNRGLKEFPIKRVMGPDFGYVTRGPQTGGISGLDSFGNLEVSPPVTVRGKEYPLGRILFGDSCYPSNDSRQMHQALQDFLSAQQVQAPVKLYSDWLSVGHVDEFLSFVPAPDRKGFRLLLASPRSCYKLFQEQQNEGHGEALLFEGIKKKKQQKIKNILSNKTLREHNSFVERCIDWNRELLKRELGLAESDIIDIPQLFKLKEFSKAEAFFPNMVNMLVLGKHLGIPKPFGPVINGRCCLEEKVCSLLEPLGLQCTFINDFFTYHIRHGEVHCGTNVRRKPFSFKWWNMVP

SMILES	IC50 [nM]
COc1cc(C(=O)N2C[C@H](N)C[C@@H](F)C2)cc2nc(-c3cc4ccccc4n3CC3CC3)n(Cc3csc(C)n3)c12 [Example 285, (3R,5R)-1-{2-[1-(cyclopropylmethyl)-1H-indol-2-yl]-7-methoxy-1-[(2-methyl-1,3-thiazol-4-yl)methyl]-1H-1,3-benzodiazote-5-carbonyl}-5-fluoropiperidin-3-amine]	1020
CCc1ccccc1-c1nc2cc(C(=O)N3CC4CCC3[C@@H]4N)cc(OC)c2n1CC1CN(c2cncc(C)c2)C1 (stereo partly drawn) [Example 323, (1R,4R,7R)-2-[2-(2-ethytphenyl)-7-methoxy-1-{[1-(5-methylpyridin-3-yl)azetidin-3-yl]methyl}-1H-1,3-benzodiazole-5-carbonyl]-2-azabicyclo[2.2.1]heptan-7-amine]	2990
COc1cc(C(=O)N2CC3CCC2[C@@H]3N)cc2nc(-c3cc4ccccc4n3CC3CC3)n(CC3CN(C(=O)c4ccc(Cl)s4)C3)c12 (stereo partly drawn) [Example 445, (7R)-2-(1-{[1-(5-chlorothiophene-2-carbonyl)azetidin-3-yl]methyl}-2-[1-(cyclopropylmethyl)-1H-indol-2-yl]-7-methoxy-1H-1,3-benzodiazole-5-carbonyl)-2-azabicyclo[2.2.1]heptan-7-amine]	43
COc1cc(C(=O)N2CC3CCC2[C@@H]3N)cc2nc(-c3cc4cccnc4n3CC3CC3)n(CC3CCN(c4cnc(C#N)nc4)CC3)c12 (stereo partly drawn) [Example 221, 5-[4-({5-[(1R,4R.,7R)-7-amino-2-azabicyclo[2.2.1]heptane-2-carbonyl]-2-[1-(cyclopropylmethyl)-1H-pyrrolo[2,3-b]pyridin-2-yl]-7-methoxy-1H-1,3-benzodiazol-1-yl}methyl)piperidin-1-yl]pyrimidine-2-carbonitrile]	96
COc1ccc2cc(-c3nc4cc(C(=O)N5C[C@H]6CC[C@@H]5[C@@H]6N)cc(OC)c4n3CC3CN(C(=O)c4cnc(C#N)nc4)C3)n(CC3CC3)c2n1 [Example 177, 5-[3-({5-[(1R,4R,7R)-7-amino-2-azabicyclo[2.2.1]heptane-2-carbonyl]-2-[1-(cyclopropylmethyl)-6-methoxy-1H-pyrrolo[2,3-b]pyridin-2-yl]-7-methoxy-1H-1,3-benzodiazol-1-yl}methyl)azetidine-1-carbonyl]pyrimidine-2-carbonitrile]	54
COc1cc(C(=O)N2C[C@H]3CC[C@@H]2[C@@H]3N)cc2nc(-c3cccn3CC3CC3)n(CC3CN(c4ccnc(C#N)n4)C3)c12 [Example 311, 4-[3-({5-[(1R,4R,7R)-7-amino-2-azabicyclo[2.2.1]heptane-2-carbonyl]-2-[1-(cyclopropylmethyl)-1H-pyrrol-2-yl]-7-methoxy-1H-1,3-benzodiazol-1-yl}methyl)azetidin-1-yl]pyrimidine-2-carbonitrile]	134
N[C@@H]1[C@@H]2CC[C@H]1N(C(=O)c1cc(Cl)c3c(c1)nc(-c1cc4cccnc4n1CC1CC1)n3CC1CN(C(=O)c3ccncc3)C1)C2 [Example 131, (1R,4R,7R)-2-{7-chloro-2-[1-(cyclopropylmethyl)-1H-pyrrolo[2,3-b]pyridin-2-yl]-1-{[1-(pyridine-4-carbonyl)azetidin-3-yl]methyl}-1H-1,3-benzodiazole-5-carbonyl}-2-azabicyclo[2.2.1]heptan-7-amine]	138
COc1cc(C(=O)N2CC3CCC2[C@@H]3N)cc2nc(-c3cc4cccnc4n3CC3CC3)n(Cc3cnn(-c4ccccn4)c3)c12 (stereo partly drawn) [Example 400, (7R)-2-{2-[1-(cyclopropylmethyl)-1H-pyrrolo[2,3-b]pyridin-2-yl]-7-methoxy-1-{[1-(pyridin-2-yl)-1H-pyrazol-4-yl]methyl}-1H-1,3-benzodiazole-5-carbonyl)-2-azabicyclo[2.2.1]heptan-7-amine]	57
COc1cc(C(=O)N2C[C@H]3CC[C@@H]2[C@@H]3N)cc2nc(-c3cc4cccnc4n3CC3CC3)n(C[C@H]3CCN(c4cncnc4C#N)C3)c12 [Example 206, 5-[(3S)-3-({5-[(1R,4R,7R)-7-amino-2-azabicyclo[2.2.1]heptane-2-carbonyl]-2-[1-(cyclopropylmethyl)-1H-pyrrolo[2,3-b]pyridin-2-yl]-7-methoxy-1H-1,3-benzodiazol-1-yl}methyl)pyrrolidin-1-yl]pyrimidine-4-carbonitrile]	47
COc1cc(C(=O)N2C[C@H]3CC[C@@H]2[C@@H]3N)cc2nc(-c3cc4cccnc4n3CC3CC3)n(CC3CN(c4ccnc(S(C)(=O)=O)n4)C3)c12 [Example 13, (1R,4R,7R)-2-{2-[1-(cyclopropylmethyl)-1H-pyrrolo[2,3-b]pyridin-2-yl]-1-{[1-(2-methanesulfonylpyrimidin-4-yl)azetidin-3-yl]methyl}-7-methoxy-1H-1,3-benzodiazole-5-carbonyl}-2-azabicyclo[2.2.1]heptan-7-amine]	38
COc1cc(C(=O)N2C[C@H](N)C[C@@H](F)C2)cc2nc(-c3cc4ccccc4n3CC3CC3)n(CC3CN(C(=O)c4ccccc4)C3)c12 [Example 160, (3R,5R)-1-{1-[(1-benzoylazetidin-3-yl)methyl]-2-[1-(cyclopropylmethyl)-1H-indol-2-yl]-7-methoxy-1H-1,3-benzodiazole-5-carbonyl}-5-fluoropiperidin-3-amine]	25
COc1cc(C(=O)N2CC3CCC2[C@@H]3N)cc2nc(-c3cc4ccccc4n3CC3CC3)n(Cc3nc[nH]n3)c12 (stereo partly drawn) [Example 510, (7R)-2-{2-[1-(cyclopropylmethyl)-1H-indol-2-yl]-7-methoxy-1-[(1H-1,2,4-triazol-3-yl)methyl]-1H-1,3-benzodiazole-5-carbonyl}-2-azabicyclo[2.2.1]heptan-7-amine]	326
COc1cc(C(=O)N2CC3CCC2[C@@H]3N)cc2nc(-c3cc4ccccc4n3CC3CC3)n(Cc3cnn(-c4cnccn4)c3)c12 (stereo partly drawn) [Example 358, (7R)-2-{2-[1-(cyclopropylmethyl)-1H-mdol-2-yl]-7-methoxy-1-{[1-(pyrazin-2-yl)-1H-pyrazol-4-yl]methyl}-1H-1,3-benzodiazole-5-carbonyl}-2-azabicyclo[2.2.1]heptan-7-amine]	23
COc1cc(C(=O)N2CC3CCC2[C@@H]3N)cc2nc(-c3cc4cccnc4n3CC3CC3)n([C@H]3C[C@@H](N)C3)c12 (stereo partly drawn) [Example 295, (1R,4R,7R)-2-{2-[1-(cyclopropylmethyl)-1H-pyrrolo[2,3-b]pyridin-2-yl]-7-methoxy-1-[(1s,3s)-3-aminocyclobutyl]-1H-1,3-benzodiazole-5-carbonyl}-2-azabicyclo[2.2.1]heptan-7-amine]	282
COc1cc(C(=O)N2CC3CCC2[C@@H]3N)cc2nc(-c3cc4cccnc4n3CC3CC3)n([C@H]3C[C@H](NC(=O)c4cc[nH]c(=O)c4)C3)c12 (stereo partly drawn) [Example 299, 2-oxo-N-[(1r,3r)-3-{5-[(1R,4R,7R)-7-amino-2-azabicyclo[2.2.1]heptane-2-carbonyl]-2-[1-(cyclopropylmethyl)-1H-pyrrolo[2,3-b]pyridin-2-yl]-7-methoxy-1H-1,3-benzodiazol-1-yl}cyclobutyl]-1,2-dihydropyridine-4-carboxamide]	603
COc1cc(C(=O)N2CC3CCC2[C@@H]3N)cc2nc(-c3cc4cccnc4n3CC3CC3)n([C@H]3C[C@@H](NC(C)=O)C3)c12 (stereo partly drawn) [Example 304, N-[(1s,3s)-3-{5-[(1R,4R,7R)-7-ammo-2-azabicyclo[2.2.1]heptane-2-carbonyl]-2-[1-(cyclopropylmethyl)-1H-pyrrolo[2,3-b]pyridin-2-yl]-7-methoxy-1H-1,3-benzodiazol-1-yl}cyclobutyl]acetamide]	2880
COc1cc(C(=O)N2C[C@H]3CC[C@@H]2[C@@H]3N)cc2nc(-c3cc4cccnc4n3CC3CC3)n(CC3CN(C(=O)c4ccnc(Cl)c4)C3)c12 [Example 107, (1R,4R,7R)-2-(1-{[1-(2-chloropyridine-4-carbonyl)azetidin-3-yl]methyl}-2-[1-(cyclopropylmethyl)-1H-pyrrolo[2,3-b]pyridin-2-yl]-7-methoxy-1H-1,3-benzodiazole-5-carbonyl)-2-azabicyclo[2.2.1]heptan-7-amine]	33
COc1cc(C(=O)N2CC3CCC2[C@@H]3N)cc2nc(-c3cc4ccccc4n3CC3CC3)n(CC3CN(C(=O)c4ccnc(Cl)c4)C3)c12 (stereo partly drawn) [Example 424, (7R)-2-(1-{[1-(2-chloropyridine-4-carbonyl)azetidin-3-yl]methyl}-2-[1-(cyclopropylmethyl)-1H-indol-2-yl]-7-methoxy-1H-1,3-benzodiazole-5-carbonyl)-2-azabicyclo[2.2.1]heptan-7-amine]	25
COc1cc(C(=O)N2C[C@H]3CC[C@@H]2[C@@H]3N)cc2nc(-c3cc4ccccc4n3C)n(CC3CN(c4ccnc(C)n4)C3)c12 [Example 6, ((1R,4R,7R)-7-amino-2-azabicyclo[2.2.1]heptan-2-yl)(7-methoxy-2-(1-methyl-1H-indol-2-yl)-1-((1-(2-methylpyrimidin-4-yl)azetidin-3-yl)methyl)-1H-benzo[d]imidazol-5-yl)methanone]	78
COC(=O)Cn1cc(Cn2c(-c3cc4cccnc4n3CC3CC3)nc3cc(C(=O)N4CC5CCC4[C@@H]5N)cc(OC)c32)cn1 (stereo partly drawn) [Example 411, methyl 2-[4-({5-[(7R)-7-amino-2-azabicyclo[2.2.1]heptane-2-carbonyl]-2-[1-(cyclopropylmethyl)-1H-pyrrolo[2,3-b]pyridin-2-yl]-7-methoxy-1H-1,3-benzodiazol-1-yl}methyl)-1H-pyrazol-1-yl]acetate]	55
COc1cc(C(=O)N2C[C@H]3CC[C@@H]2[C@@H]3N)cc2nc(-c3cc4cccnc4n3CC3CC3)n(C3CN(S(=O)(=O)c4ccccc4)C3)c12 [Example 329, (1R,4R,7R)-2-{1-[1-(benzenesulfonyl)azetidin-3-yl]-2-[1-(cyclopropylmethyl)-1H-pyrrolo[2,3-b]pyridin-2-yl]-7-methoxy-1H-1,3-benzodiazole-5-carbonyl}-2-azabicyclo[2.2.1]heptan-7-amine]	163
